From patent US20170202936A1, “Identification, Optimization And Use Of Cryptic HLA-B7 Epitopes For Immunotherapy” (VAXON BIOTECH, priority 2006, published 2017)
“Also recorded” adds a separate entry of the source. No end group written: not given here.

How the values were obtained:
[1] = biological target: T1, HLA-B*0702 (Homo sapiens, UniProt P01889); assay: Measurement of peptide relative affinity to HLA-B*0702 (T2-B7 cells, ME-1 mAb staining); format: binding; settings: for RA (relative affinity for HLA-B*0702): T2-B7 cells, 16 hours 37° C., ratio of concentrations inducing 20% HLA-B*0702 expression vs reference peptide CMV265-274; for RA: class symbols, Table IV
T1 construct: expressed in transfected cells; host or cells: human T2 cells transfected with HLA-B*0702 (T2-B7)
Method: The affinity of a peptide for HLA-B*0702 can be determined by methods known in the art, for instance by the assay described by Rohrlich et al., 2003. Results are expressed as relative affinity (RA) when compared to a reference peptide. […] Peptides with RA greater than 10 are therefore considered to be cryptic peptides (or epitopes).
Measurement of Peptide Relative Affinity to HLA-B*0702. The protocol used has been described previously (Rohrlich et al., 2003). Briefly, T2-B7 cells were incubated at 37° C. for 16 hours with peptides concentrations ranging from 100 μM to 0.1 μM, and then stained with ME-1 monoclonal antibody (mAb) to quantify the surface expression of HLA-B*0702. For each peptide concentration, the HLA-B*0702 specific staining was calculated as the percentage of staining obtained with 100 μM of the reference peptide CMV265-274 (R10V; […], SEQ ID NO: 9). The relative affinity (RA) was determined as: RA=(Concentration of each peptide that induces 20% of HLA-B*0702-expression/Concentration of the reference peptide that induces 20% of HLA-B*0702 expression).

[2] = tested on: HLA-B*0702 transgenic mice; assay: CTL induction in vivo in HLA-B*0702 transgenic mice (immunogenicity, cytotoxic assay on peptide-loaded RMA-B7 targets); parameters: key: + for immunogenicity or native peptide cross recognition means that the peptide induced a specific response in at least one HLA-B*0702 transgenic mouse, able to recognized the corresponding native peptide; settings: Table V
Method: (§1) CTL Induction in vivo in HLA-B*0702 Transgenic Mice. Mice were injected subcutaneously with 100 μg of peptide emulsified in Incomplete Freund's Adjuvant (IFA) in the presence of 150 μg of the I-A^b restricted HBVcore128 T helper epitope ([…], SEQ ID NO: 10). After 11 days, 5×10^7 spleen cells were stimulated in vitro with peptide (10 μM). On day 6 of culture, the bulk responder populations were tested for specific cytotoxicity.
(§2) Cytotoxic assay. Targets were labelled with 100 μCi of Cr^51 for 60 min, plated in 96-well V-bottomed plates (3×10^3 cell/well in 100 μL of RPMI 1640 medium) and, when necessary, pulsed with peptides (1 μM) at 37° C. for 2 hours. Effectors were then added in the wells and incubated at 37° C. for 4 hours. Percentage of specific lysis was determined as: % Lysis=(Experimental Release−Spontaneous Release)/(Maximal Release−Spontaneous Release)×100.
(§3) HLA-B7 transgenic mice were vaccinated with the selected peptides, and eleven days later, their spleen cells were in vitro stimulated with the peptide.

[3] = tested on: HLA-B*0702 transgenic mice; assay: as above; parameters: key: +: means that a specific immunoresponse was generated at least one HLA-B*0702 transgenic mice; settings: Table IV
Method: as §1, §2, §3

[4] = tested on: HLA-B*0702 transgenic mice; assay: as above; parameters: key to Corresponding native peptide cross-reconnaissance: + for immunogenicity or native peptide cross recognition means that the peptide induced a specific response in at least one HLA-B*0702 transgenic mouse, able to recognized the corresponding native peptide; settings: for Corresponding native peptide cross-reconnaissance: CTL induced in HLA-B*0702 transgenic mice; for Immunogenicity: specific CTL immune response (in words) / Recognition of the native peptide by CTL generated with the optimized peptide (in words): HLA-B*0702 transgenic mice
Method: as §1, §2, §3

[5] = tested on: SK-MES-1, HBL-100, SW-480 and HSS human tumor cell lines; assay: Cytotoxicity of peptide-induced human CTL against human tumor cell lines; format: cell-based; settings: one responding donor
Method: Cells. HLA-B*0702 transfected murine RMA-B7 and human T2-B7 cells were previously described (Rohrlich et al., 2003). COS-7 and WEHI-164 clone 13 cells were provided by F. Jotereau (INSERM 463, Nantes, France). The HLA-B*0702 positive SK-MES-1 (lung cancer), HBL-100 (breast cancer), and the HLA-B*0702 negative SW-480 (colon cancer) and HSS (myeloma) cell lines were used as targets of human CTL. All cell lines were grown in FCS 10% supplemented RPMI1640 culture medium.
(§4) Generation of CTL from human PBMC. PBMC were collected by leukapheresis from healthy HLA-B*0702 volunteers. Dendritic cells (DC) were produced from adherent cells cultured for seven days (2×10^6 cells/ml) in the presence of 500 IU/ml GM-CSF and 500 IU/ml IL-4 (R&D Systems, Minneapolis, Minn.) in complete medium (RPMI-1640 supplemented with 10% heat inactivated human AB serum, […] L-Glutamine and antibiotics). On day seven, DC were pulsed with 10 μM peptides for 2 hrs; maturation agents Poly I:C (Sigma, Oakville, Canada) at 100 ng/ml and anti-CD40 mAb (clone G28-5, ATCC, Manassas, Va.) at 2 μg/ml were added in the culture and DCs were incubated at 37° C. overnight or up to 48 hours. Mature DC were then irradiated (3500 rads). […]
(§5) Cytotoxic assay. […] Percentage of specific lysis was determined as: % Lysis=(Experimental Release−Spontaneous Release)/(Maximal Release−Spontaneous Release)×100.

[6] = tested on: T2-B7 targets; assay: Generation of CTL from human PBMC of healthy donors, cytotoxicity against peptide-loaded T2-B7 targets; format: cell-based; settings: one responding donor
Method: as §4, with “rads). CD8+ cells were purified by positive selection with CD8 MicroBeads (Miltenyi Biotec, Auburn, Calif.) according to the manufacturer's instructions. 2×10^5 CD8^+ cells+6×10^4 CD8^− cells were stimulated with 2×10^4 peptide pulsed DC in complete culture medium supplemented with 1000 IU/ml IL-6 and 5 IU/ml IL-12 (R&D Systems, Minneapolis, Minn.) in round-bottomed 96 well plates.” for “rads).”
as §5

[7] = tested on: RMA-B7 targets; assay: Lysis of RMA-B7 targets loaded with decreasing peptide concentrations by murine CTL; format: cell-based; settings: CTL from mice immunized with TERT444A1, restimulated in vitro with native TERT444, read-out: Half maximal lysis of peptide loaded targets
Method: as §1, §2

| Sequence | Immunogenicity [3] | Immunogenicity: specific CTL immune response (in words) [4] | Affinity for HLA-B*0702 (in words) [1] | RA [1] | further results |
| --- | --- | --- | --- | --- | --- |
| APEEISSMVL (HSP70_115A1 optimized peptide) [Hsp70 115A1] |  |  |  |  | RA (relative affinity for HLA-B*0702) [1]: >10 |
| APKANKEIL (Her-2/neu760A1 optimized peptide derived from the cryptic peptide of SEQ ID NO3) [Her2/neu760A1] | + |  |  |  | Immunogenicity [2]: +; Corresponding native peptide cross-reconnaissance [4]: + |
| APKHSDCLA (Her-2/neu246A1 optimized peptide derived from the cryptic peptide of SEQ ID NO4) [Her2/neu246A1] | + |  |  |  | Immunogenicity [2]: +; Corresponding native peptide cross-reconnaissance [4]: + |
| APLSLGLET (Hsp70 397 antigen peptide) |  | Only the high affinity TERT4 was immunogenic | low affinity |  | RA (relative affinity for HLA-B*0702) [1]: >10 |
| APRALVETL (MAGE-A antigen peptide) | + |  |  | + (+ = 1 < RA < 10) |  |
| APRASSPLL (a HLA-B*0702 restricted peptide) | + |  |  |  |  |
| APRCRAVRSL [TERT4] |  |  |  |  | Cytotoxicity of human CTL against human tumor cell lines [5]: killed the HLA-B*0702 TERT+SK-MES-1 and HBL-100 but not the HLA-B*0702-TERT+SW-480 and HSS human tumor cell lines; Cytotoxicity of human CTL against peptide-loaded T2-B7 targets [6]: killed T2-B7 targets presenting TERT4 but not T2-B7 cells presenting the irrelevant Nef peptide |
| APREISSMVL (HSP70_115A1R3 optimized peptide) [Hsp70115A1R3] | + | induced an immune response in the majority of vaccinated mice | strong affinity | + (+ = 1 < RA < 10) | Recognition of the native peptide by CTL generated with the optimized peptide (in words) [4]: recognized the optimized peptide but not the corresponding native peptide |
| APREYVNAL (Her-2/neu) | + |  |  | + (+ = 1 < RA < 10) |  |
| APRGVPQIEL (a HLA-B*0702 restricted peptide) | + |  |  |  |  |
| APRMHCAVDL (EphA2) | + |  |  | ++ (++ = RA < 1) |  |
| APRMPEAAL (a HLA-B*0702 restricted peptide) | + |  |  |  |  |
| APRPWTPCL (a HLA-B*0702 restricted peptide) | + |  |  | + (+ = 1 < RA < 10) |  |
| APRQLGREL (a HLA-B*0702 restricted peptide) | + |  |  |  |  |
| APRRRLGCEL (TERT antigen peptide) | + |  |  | + (+ = 1 < RA < 10) |  |
| APRSLGLEL (HSP70_397R3L9 optimized peptide) [Hsp70397R3L9] | + | induced an immune response in the majority of vaccinated mice | strong affinity | ++ (++ = RA < 1) | Recognition of the native peptide by CTL generated with the optimized peptide (in words) [4]: recognized the optimized peptide but not the corresponding native peptide |
| APRSPLAPL (Her-2/neu1069L9 optimized peptide derived from the cryptic peptide of SEQ ID NO2) [Her2/neu1069L9] | + |  |  | ++ (++ = RA < 1) | Immunogenicity [2]: +; Corresponding native peptide cross-reconnaissance [4]: + |
| APRSPLAPS (HER-2/neu1069 HLA-B*0702 restricted cryptic epitope) [Her2/neu1069] |  | not immunogenic |  |  |  |
| APRTKAEML (MAGE-121.1 A1R3 optimized peptide) | + |  |  | + (+ = 1 < RA < 10) |  |
| APRVSIRLPL (EphA2) |  |  |  | ++ (++ = RA < 1) |  |
| APVTKAEML (MAGE-121.1 A1 optimized peptide) [MAGE-121.1/A1] |  |  |  |  | RA (relative affinity for HLA-B*0702) [1]: >10 |
| DPRRLVQLL [TERT444] |  | Only the high affinity TERT4 was immunogenic; also recorded: not immunogenic | low affinity |  | RA (relative affinity for HLA-B*0702) [1]: >10; EC50 [7]: 5.5 nM |
| EPFTKAEML (MAGE-A121.2 antigen peptide) |  |  | low affinity |  | RA (relative affinity for HLA-B*0702) [1]: >10 |
| EPITKAEIL (MAGE-A121.4 antigen peptide) |  |  | low affinity |  | RA (relative affinity for HLA-B*0702) [1]: >10 |
| EPVTKAEML [MAGE-A121.1] |  |  | low affinity |  | RA (relative affinity for HLA-B*0702) [1]: >10 |
| GPKHSDCLA (HER-2/neu246 HLA-B*0702 restricted cryptic epitope) [Her2/neu246] |  | not immunogenic |  |  |  |
| SPKANKEIL (HER-2/neu760 HLA-B*0702 restricted cryptic epitope) [Her2/neu760] |  | not immunogenic |  |  |  |
| YPEEISSMVL (peptide of Hsp70_115) [Hsp70 115] |  | Only the high affinity TERT4 was immunogenic | low affinity; also recorded: non binders |  |  |
| YPVTNAVITV (Hsp70 137(10) antigen peptide) [Hsp70 137 (10)] |  | Only the high affinity TERT4 was immunogenic | low affinity; also recorded: non binders |  |  |
